According to ChEMBL document CHEMBL1201862, “PubChem BioAssay data set” (2004):
pIC50: −log10 of the molar value. The source made the active and inactive calls.

Columns and labels:
[1] = biological target: T1, Delta-type opioid receptor (Homo sapiens, UniProt P41143); test: HTS Image-Based Screen for Antagonists of the DOR Receptor. [Related pubchem assays (depositor defined):AID1777, AID1785, AID1786, AID2133]; type: functional
Mu-type opioid receptor [2] = biological target: T2, Mu-type opioid receptor (Homo sapiens, UniProt P35372); test: HTS Image-Based Screen for Agonists of the MOR Receptor. [Related pubchem assays (depositor defined):AID1777, AID1785, AID1786, AID2133]; type: functional
[3] = biological target: T1, Delta-type opioid receptor; test: HTS Image-Based Screen for Agonists of the DOR Receptor. [Related pubchem assays (depositor defined):AID1777, AID1786, AID2133]; type: functional
[4] = biological target: T3, Kappa-type opioid receptor (Homo sapiens, UniProt P41145); type: functional
Beta-galactosidase = Beta-galactosidase (Escherichia coli, UniProt Q8VNN2); type: functional
[5] = biological target: T3, Kappa-type opioid receptor; type: functional; remark: listed apart in the source
[6] = biological target: T4, Ubiquitin-conjugating enzyme E2 N (Homo sapiens, UniProt P61088); type: functional;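 further: Dose-response confirmation in a TR-FRET assay detecting UBC13-driven polyubiquitin chain formation, inhibition measured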
T4 sequence (P61088 whole entry): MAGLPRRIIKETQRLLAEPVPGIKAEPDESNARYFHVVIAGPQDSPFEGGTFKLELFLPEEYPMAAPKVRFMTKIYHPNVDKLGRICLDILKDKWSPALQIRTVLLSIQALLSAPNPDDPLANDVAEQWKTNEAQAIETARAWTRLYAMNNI

Paired box protein Pax-8 = Paired box protein Pax-8 (Homo sapiens, UniProt Q06710); test: inhibitors of PAX8-driven TPO luciferase reporter, dose response, RMG-I cells, cherry-pick (AID 687027); type: functional, cell-based;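 further: luciferase reporter driven by Pax8 target thyroperoxidase promoter measured by SteadyGlo luminescence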
[7] = biological target: T5, G-protein coupled receptor 35 (Homo sapiens, UniProt Q9HC97); test: GPR35 antagonists blocking zaprinast-driven arrestin recruitment, primary screen, imaging, U2OS, beta-arrestin-GFP, zaprinast agonist (AID 2058); type: functional;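 further: antagonist potency meaning inhibition of agonist-induced arrestin redistribution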
[8] = biological target: T5, G-protein coupled receptor 35; test: SAR Analysis for the identification of Selective Antagonists of ERK1/2 Activity in GPR35-Overexpressing U2OS Cells. [Related pubchem assays: 2079, 2058 ]; type: functional, cell-based
[9] = biological target: G-protein coupled receptor 55 (Homo sapiens, UniProt Q9Y2T6); test: GPR55 antagonists, SAR follow-up, counter-screen for GPR35 antagonist project, imaging, image-based (AID 2397); type: functional
[10] = biological target: T6, Tyrosine-protein phosphatase non-receptor type 7 (Homo sapiens, UniProt P35236); type: functional
T6 sequence (P35236 whole entry): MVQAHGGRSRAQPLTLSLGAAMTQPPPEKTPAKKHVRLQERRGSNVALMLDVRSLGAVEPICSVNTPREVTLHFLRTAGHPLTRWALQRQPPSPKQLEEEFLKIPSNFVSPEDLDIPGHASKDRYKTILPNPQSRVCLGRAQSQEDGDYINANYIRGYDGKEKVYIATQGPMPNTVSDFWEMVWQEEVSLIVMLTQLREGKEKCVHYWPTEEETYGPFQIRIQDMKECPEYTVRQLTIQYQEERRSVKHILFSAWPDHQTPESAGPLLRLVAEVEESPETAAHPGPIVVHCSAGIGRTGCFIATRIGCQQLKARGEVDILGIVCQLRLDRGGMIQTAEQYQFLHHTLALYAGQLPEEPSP

[11] = biological target: T7, Tyrosine-protein phosphatase non-receptor type 22 (Homo sapiens, UniProt Q9Y2R2); type: functional
[12] = biological target: T7, Tyrosine-protein phosphatase non-receptor type 22; type: functional; remark: listed apart in the source
[13] = biological target: Lysine-specific demethylase 4A (Homo sapiens, UniProt O75164); test: JMJD2A histone demethylase inhibitors, dose response, selectivity assay for GASC-1 inhibitor project, biochemical, DELFIA europium, cherry-picked samples (AID 488840)
HEK293 [14] = test: NOD1 signaling inhibitors, primary screen, cell-based, luminescence, uHTS (AID 1578); type: functional; conditions: Homo sapiens
HEK293 [15] = test: cells; type: functional, cell-based; conditions: Homo sapiens
HEK293 [16] = test: cells; type: functional, cell-based; conditions: Homo sapiens; remark: listed apart in the source
HEK293 [17] = test: NOD2 signaling inhibitors in MDP-stimulated cells, cell-based, uHTS, luminescence (AID 2001); type: functional; conditions: Homo sapiens
[18] = inhibitors of intracellular T. cruzi replication, confirmation, NIH3T3 host cells, beta-gal luminescence (AID 2044); type: functional, cell-based;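 further: intracellular parasites grown in NIH/3T3 mouse fibroblasts as host cells; luminescent beta-galactosidase reporter signal from transgenic T. cruzi replicating inside host cells; inhibitors lower the luminescence signal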
[19] = cytotoxicity toward NIH3T3 fibroblasts, dose response, counter-screen, cell-based, ATP luminescence, mouse fibroblasts (AID 2010); type: functional;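 further: cells exposed to compound for about 90 hours before reading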
Tumor necrosis factor = Tumor necrosis factor (Homo sapiens, UniProt P01375); test: TNFa-triggered NF-kB activation inhibitors, SAR follow-up, cell-based, revised (AID 2337); type: functional
[20] = biological target: Nucleotide-binding oligomerization domain-containing protein 1 (Homo sapiens, UniProt Q9Y239); test: NOD1 signaling inhibitors, SAR follow-up, revised (AID 2333); type: functional
[21] = biological target: Nucleotide-binding oligomerization domain-containing protein 2 (Homo sapiens, UniProt Q9HC29); test: PubChem AID 2334; type: functional
HEK293 [22] = test: cells; conditions: Homo sapiens
[23] = biological target: Signal transducer and activator of transcription 3 (Homo sapiens, UniProt P40763); test: STAT3 inhibitors, late-stage profile, late-stage follow-up, cell-based, STAT1 panel, qPCR, cytotoxicity, panel member STAT3 Inhibition (AID 2078)
[24] = biological target: Signal transducer and activator of transcription 1-alpha/beta (Homo sapiens, UniProt P42224); test: STAT3 inhibitors, late-stage profile, late-stage follow-up, cell-based, STAT1 panel, qPCR, cytotoxicity, panel member STAT1 Inhibition (AID 2078)
[25] = biological target: T8, COUP transcription factor 2 (Homo sapiens, UniProt P24468); test: Luminescence-based cell-based high throughput dose response assay to identify inhibitors of COUP-TFII (NR2F2).; type: functional;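 further: HEK293 cells transiently cotransfected with COUP-TFII expression vector and reporter; luciferase reporter luminescence driven by COUP-TFII from the pX2-168 reporter plasmid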
T8 sequence (P24468 whole entry): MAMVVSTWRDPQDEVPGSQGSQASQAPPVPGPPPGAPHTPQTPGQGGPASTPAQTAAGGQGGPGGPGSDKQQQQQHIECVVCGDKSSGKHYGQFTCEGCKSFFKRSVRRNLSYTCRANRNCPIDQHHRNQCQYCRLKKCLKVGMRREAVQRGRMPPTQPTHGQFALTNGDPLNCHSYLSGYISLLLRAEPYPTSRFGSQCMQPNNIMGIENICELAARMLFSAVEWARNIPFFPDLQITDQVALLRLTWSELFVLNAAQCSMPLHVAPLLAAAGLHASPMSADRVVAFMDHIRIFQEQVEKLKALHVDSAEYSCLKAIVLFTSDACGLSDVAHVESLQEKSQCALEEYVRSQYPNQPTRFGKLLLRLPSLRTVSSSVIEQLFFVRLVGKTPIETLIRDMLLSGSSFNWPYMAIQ

[26] = biological target: T3, Kappa-type opioid receptor; test: KOR agonist analogs, arrestin-GFP redistribution, SAR follow-up, imaging, image-based, set 3 (AID 488833); type: functional
Mu-type opioid receptor [27] = biological target: T2, Mu-type opioid receptor; test: SAR Analysis of Agonists of the MOR Receptor using an Image-Based Assay - Set 3. [Related pubchem assays (depositor defined):AID1777, AID1785, AID1786, AID1966, AID2133, AID2136, AID2284, AID2285, AID2352]; type: functional
[28] = biological target: T1, Delta-type opioid receptor; test: SAR Analysis of Agonists of the DOR Receptor using an Image-Based Assay - Set 3. [Related pubchem assays (depositor defined):AID1777, AID1786]; type: functional
[29] = biological target: T3, Kappa-type opioid receptor; test: SAR analysis of small molecule agonists of the kappa opioid receptor via a luminescent beta-arrestin assay - Set 3. [Related pubchem assays (depositor defined):AID1777, AID1785, AID1786, AID1966, AID2133, AID2136, AID2284, AID2500]; type: functional
[30] = system: Streptococcus sp. 'group A'; test: growth inhibition of control SK(-) GAS strain, dose response, counter-screen for streptokinase expression inhibitor project, luminescence, kanamycin, BacTiterGlo, confirmation (AID 1900); type: functional, organism-based
Streptokinase A = biological target: T9, Streptokinase A (Streptococcus pyogenes serotype M1, UniProt P10520); test: S. pyogenes streptokinase expression inhibitors, potency, dose response, plasminogen activation absorbance, OD405 (AID 1914); type: functional, Streptococcus pyogenes M1 GAS;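 further: secreted streptokinase activity via plasminogen activation per viability signal from cell pellet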
T9 sequence (P10520 whole entry): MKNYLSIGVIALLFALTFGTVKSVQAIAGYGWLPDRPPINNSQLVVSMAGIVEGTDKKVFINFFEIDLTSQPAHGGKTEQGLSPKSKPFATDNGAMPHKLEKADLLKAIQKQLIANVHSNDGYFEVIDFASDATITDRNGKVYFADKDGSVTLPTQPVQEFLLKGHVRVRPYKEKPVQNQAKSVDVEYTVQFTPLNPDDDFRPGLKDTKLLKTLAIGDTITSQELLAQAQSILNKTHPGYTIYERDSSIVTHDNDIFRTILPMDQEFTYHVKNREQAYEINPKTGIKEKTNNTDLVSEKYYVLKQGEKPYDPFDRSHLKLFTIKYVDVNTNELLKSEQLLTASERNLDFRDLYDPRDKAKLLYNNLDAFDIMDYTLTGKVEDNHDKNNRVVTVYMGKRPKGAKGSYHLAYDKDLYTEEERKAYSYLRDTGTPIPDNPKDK

Streptococcus = test: Group A Streptococcus viability loss, dose response, counter-screen for streptokinase expression inhibitor project, luminescence, BacTiterGlo (AID 1915); type: functional, organism-based;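 further: potency for reduction of bacterial viability or growth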
[31] = decrease of PhoP-driven GFP reporter signal, S. Typhimurium, dose response, PhoP regulon inhibitor project, purified and synthesized compounds, set 2 (AID 2831); type: functional
[32] = biological target: Heat shock protein HSP 90-alpha (Homo sapiens, UniProt P07900); type: functional, organism-based

T3 sequence (P41145 whole entry): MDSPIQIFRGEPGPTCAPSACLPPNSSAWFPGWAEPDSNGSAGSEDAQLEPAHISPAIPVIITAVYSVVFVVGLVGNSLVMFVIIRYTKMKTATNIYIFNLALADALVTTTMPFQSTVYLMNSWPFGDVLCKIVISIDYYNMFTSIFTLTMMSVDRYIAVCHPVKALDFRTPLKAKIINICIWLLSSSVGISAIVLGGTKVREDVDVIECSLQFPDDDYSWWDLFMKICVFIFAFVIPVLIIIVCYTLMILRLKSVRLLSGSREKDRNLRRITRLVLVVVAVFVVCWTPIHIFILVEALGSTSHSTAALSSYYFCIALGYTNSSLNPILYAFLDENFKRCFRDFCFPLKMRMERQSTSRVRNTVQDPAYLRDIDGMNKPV
T1 sequence (P41143 whole entry): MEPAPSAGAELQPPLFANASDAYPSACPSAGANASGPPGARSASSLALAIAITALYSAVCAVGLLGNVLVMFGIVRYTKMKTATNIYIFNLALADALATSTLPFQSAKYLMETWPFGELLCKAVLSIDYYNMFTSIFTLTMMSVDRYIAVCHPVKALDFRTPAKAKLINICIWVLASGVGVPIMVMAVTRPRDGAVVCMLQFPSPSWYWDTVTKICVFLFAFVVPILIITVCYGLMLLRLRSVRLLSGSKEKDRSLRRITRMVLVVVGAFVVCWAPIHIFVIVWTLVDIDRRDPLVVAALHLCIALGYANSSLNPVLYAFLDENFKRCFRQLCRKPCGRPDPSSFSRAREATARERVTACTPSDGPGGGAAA
T7 sequence (Q9Y2R2 whole entry): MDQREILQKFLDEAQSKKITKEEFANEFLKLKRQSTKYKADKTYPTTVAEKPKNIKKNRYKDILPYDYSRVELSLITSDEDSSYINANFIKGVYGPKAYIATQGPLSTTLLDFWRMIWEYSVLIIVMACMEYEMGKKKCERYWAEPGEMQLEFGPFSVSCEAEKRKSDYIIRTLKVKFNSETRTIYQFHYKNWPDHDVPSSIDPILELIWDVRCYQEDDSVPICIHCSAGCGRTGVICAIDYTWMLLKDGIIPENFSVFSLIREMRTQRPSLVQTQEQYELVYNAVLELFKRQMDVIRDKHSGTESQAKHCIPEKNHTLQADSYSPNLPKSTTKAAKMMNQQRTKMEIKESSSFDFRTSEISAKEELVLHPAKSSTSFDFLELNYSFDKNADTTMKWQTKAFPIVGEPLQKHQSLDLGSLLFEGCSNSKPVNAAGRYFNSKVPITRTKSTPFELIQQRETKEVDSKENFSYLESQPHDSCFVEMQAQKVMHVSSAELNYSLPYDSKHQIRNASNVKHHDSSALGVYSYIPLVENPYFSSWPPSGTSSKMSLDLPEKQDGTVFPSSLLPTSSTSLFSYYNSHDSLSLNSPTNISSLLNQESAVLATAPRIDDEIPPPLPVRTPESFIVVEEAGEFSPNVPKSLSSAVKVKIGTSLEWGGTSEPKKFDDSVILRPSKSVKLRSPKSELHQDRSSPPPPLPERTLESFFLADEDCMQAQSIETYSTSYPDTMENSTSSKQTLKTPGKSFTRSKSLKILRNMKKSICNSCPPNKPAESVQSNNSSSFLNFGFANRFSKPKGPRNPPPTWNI
T2 sequence (P35372 whole entry): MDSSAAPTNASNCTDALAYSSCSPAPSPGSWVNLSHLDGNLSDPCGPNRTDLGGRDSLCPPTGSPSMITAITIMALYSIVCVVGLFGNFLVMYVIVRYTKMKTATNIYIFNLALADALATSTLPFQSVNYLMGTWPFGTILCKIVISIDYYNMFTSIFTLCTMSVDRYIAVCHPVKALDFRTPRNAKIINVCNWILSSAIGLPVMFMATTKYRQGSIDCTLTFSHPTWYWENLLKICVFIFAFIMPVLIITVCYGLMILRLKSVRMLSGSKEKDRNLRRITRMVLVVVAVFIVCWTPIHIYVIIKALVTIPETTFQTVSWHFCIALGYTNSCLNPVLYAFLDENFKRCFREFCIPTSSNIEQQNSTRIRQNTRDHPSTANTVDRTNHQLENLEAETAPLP
T5 sequence (Q9HC97 whole entry): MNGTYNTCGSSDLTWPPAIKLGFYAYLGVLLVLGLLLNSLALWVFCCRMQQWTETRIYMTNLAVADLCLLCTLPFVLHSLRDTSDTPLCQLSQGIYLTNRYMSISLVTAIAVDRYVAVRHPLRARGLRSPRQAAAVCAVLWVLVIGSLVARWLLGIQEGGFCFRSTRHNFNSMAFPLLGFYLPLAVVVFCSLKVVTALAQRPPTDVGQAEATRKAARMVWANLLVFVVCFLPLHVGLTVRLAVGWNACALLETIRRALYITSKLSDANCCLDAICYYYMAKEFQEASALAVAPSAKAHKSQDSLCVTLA
Sequence of Nucleotide-binding oligomerization domain-containing protein 1 (Q9Y239 whole entry, the tested form may be a part): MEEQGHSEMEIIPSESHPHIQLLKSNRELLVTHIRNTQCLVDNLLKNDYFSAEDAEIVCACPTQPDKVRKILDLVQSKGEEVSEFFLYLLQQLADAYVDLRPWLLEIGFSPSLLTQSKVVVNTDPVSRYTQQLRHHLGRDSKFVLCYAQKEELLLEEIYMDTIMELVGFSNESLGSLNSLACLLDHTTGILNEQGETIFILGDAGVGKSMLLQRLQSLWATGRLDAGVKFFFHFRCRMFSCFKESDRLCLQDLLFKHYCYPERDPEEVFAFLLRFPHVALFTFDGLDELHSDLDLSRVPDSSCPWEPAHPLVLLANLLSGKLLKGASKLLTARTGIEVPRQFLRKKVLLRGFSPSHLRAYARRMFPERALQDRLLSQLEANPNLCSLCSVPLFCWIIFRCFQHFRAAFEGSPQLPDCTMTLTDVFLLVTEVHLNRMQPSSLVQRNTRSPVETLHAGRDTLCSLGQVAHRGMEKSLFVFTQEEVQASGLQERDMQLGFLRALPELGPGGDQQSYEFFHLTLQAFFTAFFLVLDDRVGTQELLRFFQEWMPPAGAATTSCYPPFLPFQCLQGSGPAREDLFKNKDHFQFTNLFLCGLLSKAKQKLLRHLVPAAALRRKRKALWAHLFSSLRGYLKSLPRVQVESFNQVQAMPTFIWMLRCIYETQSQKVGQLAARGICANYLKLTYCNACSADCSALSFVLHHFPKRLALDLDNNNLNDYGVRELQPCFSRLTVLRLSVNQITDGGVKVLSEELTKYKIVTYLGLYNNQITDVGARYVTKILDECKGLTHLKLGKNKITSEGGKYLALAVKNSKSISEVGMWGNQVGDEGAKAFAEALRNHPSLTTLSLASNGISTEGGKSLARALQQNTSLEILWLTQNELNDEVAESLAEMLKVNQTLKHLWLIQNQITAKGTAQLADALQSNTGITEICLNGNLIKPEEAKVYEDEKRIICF
Sequence of Tumor necrosis factor (P01375 whole entry, the tested form may be a part): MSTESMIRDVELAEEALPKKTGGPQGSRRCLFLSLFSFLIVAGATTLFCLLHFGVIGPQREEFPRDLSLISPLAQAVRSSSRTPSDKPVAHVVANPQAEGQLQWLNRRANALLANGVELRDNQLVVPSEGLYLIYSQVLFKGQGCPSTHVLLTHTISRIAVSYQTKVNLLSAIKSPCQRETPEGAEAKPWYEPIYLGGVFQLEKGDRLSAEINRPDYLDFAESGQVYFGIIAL
Sequence of Beta-galactosidase (Q8VNN2 whole entry): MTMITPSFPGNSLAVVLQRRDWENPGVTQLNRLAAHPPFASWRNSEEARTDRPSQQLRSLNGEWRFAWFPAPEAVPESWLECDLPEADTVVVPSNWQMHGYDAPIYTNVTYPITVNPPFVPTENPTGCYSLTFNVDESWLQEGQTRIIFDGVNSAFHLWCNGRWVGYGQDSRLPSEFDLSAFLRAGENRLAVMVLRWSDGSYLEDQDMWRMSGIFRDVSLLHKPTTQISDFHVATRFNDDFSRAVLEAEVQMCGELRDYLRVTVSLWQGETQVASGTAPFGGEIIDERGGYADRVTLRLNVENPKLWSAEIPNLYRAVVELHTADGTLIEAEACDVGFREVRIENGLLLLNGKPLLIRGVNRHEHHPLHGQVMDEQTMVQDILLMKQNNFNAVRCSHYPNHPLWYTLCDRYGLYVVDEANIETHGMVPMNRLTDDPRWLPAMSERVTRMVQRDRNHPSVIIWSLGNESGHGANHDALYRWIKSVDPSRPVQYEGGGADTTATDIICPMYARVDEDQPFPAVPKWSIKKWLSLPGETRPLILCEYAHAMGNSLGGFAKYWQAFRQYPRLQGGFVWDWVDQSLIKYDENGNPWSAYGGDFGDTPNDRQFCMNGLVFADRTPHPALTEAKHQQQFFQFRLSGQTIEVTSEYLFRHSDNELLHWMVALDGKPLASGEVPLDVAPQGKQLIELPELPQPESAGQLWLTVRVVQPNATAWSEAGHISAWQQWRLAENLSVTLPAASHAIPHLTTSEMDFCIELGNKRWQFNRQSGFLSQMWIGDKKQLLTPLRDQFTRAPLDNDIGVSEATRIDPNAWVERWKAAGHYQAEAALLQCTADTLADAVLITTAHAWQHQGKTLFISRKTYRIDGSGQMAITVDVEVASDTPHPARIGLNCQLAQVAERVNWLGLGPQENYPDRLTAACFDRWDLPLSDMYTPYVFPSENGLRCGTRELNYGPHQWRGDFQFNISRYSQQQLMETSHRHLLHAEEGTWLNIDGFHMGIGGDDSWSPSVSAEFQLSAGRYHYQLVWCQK
Sequence of Paired box protein Pax-8 (Q06710 whole entry): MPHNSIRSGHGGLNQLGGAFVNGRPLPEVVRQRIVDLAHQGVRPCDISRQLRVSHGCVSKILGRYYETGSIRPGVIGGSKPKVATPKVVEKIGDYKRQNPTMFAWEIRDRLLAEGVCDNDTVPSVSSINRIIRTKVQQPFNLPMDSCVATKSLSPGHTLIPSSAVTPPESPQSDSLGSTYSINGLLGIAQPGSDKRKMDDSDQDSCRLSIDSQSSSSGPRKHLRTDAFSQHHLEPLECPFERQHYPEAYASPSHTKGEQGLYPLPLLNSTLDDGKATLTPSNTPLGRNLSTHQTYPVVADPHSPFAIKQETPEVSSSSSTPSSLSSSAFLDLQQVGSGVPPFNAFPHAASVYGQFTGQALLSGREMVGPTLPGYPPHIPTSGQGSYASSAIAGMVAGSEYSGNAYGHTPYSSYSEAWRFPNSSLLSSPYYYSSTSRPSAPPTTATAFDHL

Cc1ccc(C(=O)N[C@@H](C)CN2C3=NC[C@@H](Cc4ccccc4)N3C[C@H]2Cc2ccc(O)cc2)cc1Br
IC50 [1]: > 32 µM (inactive)
EC50 (Mu-type opioid receptor [2]): > 32 µM (inactive)
EC50 [3]: 31.2 µM (inactive)
IC50 [4]: 3.16 µM (active)
EC50 (Beta-galactosidase): > 31.5 µM (inactive)
pIC50 [5]: 5.84
IC50 [6]: > 20 µM (inactive)
AC50 (Paired box protein Pax-8): 24.8 µM (active)

CC(C)(C)c1ccc(OCCC(=O)NCCc2ccc(S(N)(=O)=O)cc2)cc1
IC50 [7]: 0.929 µM (active)
IC50 [8]: 9.95 µM (active)
IC50 [9]: > 32 µM (inactive)

COc1ccc(N2CCN(CCOc3ccc4c(C)cc(=O)oc4c3)CC2)cc1
IC50 [10]: > 79.4 µM (inactive)
IC50 [11]: > 79.4 µM (inactive)
IC50 [12]: > 79.4 µM (inactive)

O=C(NN=C1CCCCCCCCCCC1)c1cccc(S(=O)(=O)N2CCOCC2)c1
AC50 [13]: 18.1 µM (active)

COc1ccc(C(=O)NC(=S)N(C)C2CCCCC2)cc1Br
EC50 (HEK293 [14]): > 20 µM (inactive)
IC50 (HEK293 [15]): > 20 µM (inactive)
IC50 (HEK293 [16]): > 20 µM (inactive)
IC50 (HEK293 [17]): 6.75 µM (inactive)
EC50 [18]: 3.6 µM (active)
EC50 [19]: 12.4 µM (active)
IC50 (Tumor necrosis factor): > 20 µM (inactive)
IC50 [20]: > 20 µM (inactive)
IC50 [21]: > 20 µM (inactive)
IC50 (HEK293 [22]): > 20 µM (inactive)

O=C(c1ccccc1)C1CCN(c2ncnc3sccc23)CC1
IC50 [23]: 0.688 µM (active)
IC50 [24]: > 55.7 µM (inactive)
IC50 [25]: 5.71 µM (active)

COC(=O)c1ccc(CSc2nnc(-c3ccccn3)n2Cc2cccs2)cc1
EC50 [26]: 5.99 µM (active)
EC50 (Mu-type opioid receptor [27]): > 32 µM (inactive)
EC50 [28]: > 32 µM (inactive)
EC50 [29]: 6.14 µM (active)

CSc1nc2cc(Cl)c(Oc3cccc(Cl)c3Cl)cc2[nH]1 [TRICLABENDAZOLE]
EC50 [30]: 2.26 µM (active)
EC50 (Streptokinase A): 4.69 µM (active)
EC50 (Streptococcus): 6.22 µM (active)
IC50 [31]: > 125 µM (active)
AC50 [32]: 4.25 µM (active)
